Experimental data from PMC10256809, “Unlocking the potentials of cyanobacterial photosynthesis for directly converting carbon dioxide into glucose” (Nature Communications, 2023).

Assays:
Glk1 = biological target: T1, Glk1 (Synechococcus elongatus, UniProt Q31RR6); assay: PK/LDH-coupled sugar phosphorylation assay, […] nm; format: biochemical; conditions: 10 mM sugar, 2.5 mM ATP, 4 mM MgCl2, 20 mM KCl, Tris-HCl pH 7.8
T1 construct: gene glk
T1 sequence (Q31RR6 1-345): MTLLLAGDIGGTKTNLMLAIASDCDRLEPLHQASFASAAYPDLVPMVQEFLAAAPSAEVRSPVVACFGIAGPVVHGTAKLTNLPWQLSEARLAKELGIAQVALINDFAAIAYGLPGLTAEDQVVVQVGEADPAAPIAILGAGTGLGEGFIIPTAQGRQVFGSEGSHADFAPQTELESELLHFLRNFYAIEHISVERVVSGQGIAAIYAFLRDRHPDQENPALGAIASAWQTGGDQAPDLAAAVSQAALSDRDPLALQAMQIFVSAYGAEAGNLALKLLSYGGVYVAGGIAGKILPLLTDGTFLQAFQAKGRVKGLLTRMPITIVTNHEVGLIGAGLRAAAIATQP

Glk2 = biological target: T2, Glk2 (Synechococcus elongatus, UniProt Q31LC8); assay: PK/LDH-coupled sugar phosphorylation assay, […] nm; format: biochemical; conditions: 10 mM sugar, 2.5 mM ATP, 4 mM MgCl2, 20 mM KCl, Tris-HCl pH 7.8
T2 construct: gene Synpcc7942_2111
T2 sequence (Q31LC8 1-302): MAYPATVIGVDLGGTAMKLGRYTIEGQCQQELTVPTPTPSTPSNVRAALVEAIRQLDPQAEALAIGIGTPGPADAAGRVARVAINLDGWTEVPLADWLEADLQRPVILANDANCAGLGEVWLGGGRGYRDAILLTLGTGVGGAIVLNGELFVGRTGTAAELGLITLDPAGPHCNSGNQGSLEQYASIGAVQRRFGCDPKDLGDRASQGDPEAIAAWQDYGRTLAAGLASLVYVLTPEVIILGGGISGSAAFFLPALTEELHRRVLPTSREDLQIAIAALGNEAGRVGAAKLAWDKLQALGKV

Structure (SMILES): OC[C@H]1OC(O)[C@H](O)[C@@H](O)[C@@H]1O (some centres unmarked) [glucose]
- PK/LDH-coupled sugar phosphorylation assay, 340 nm (Glk1): both the two glucokinases showed phosphorylation activities on some other sugars besides glucose
- PK/LDH-coupled sugar phosphorylation assay, 340 nm (Glk2): both the two glucokinases showed phosphorylation activities on some other sugars besides glucose
